According to ChEMBL document CHEMBL4000181, “Synthesis and biological screening of novel 2-morpholinoquinoline nucleus clubbed with 1,2,4-oxadiazole motifs” (Eur J Med Chem, 2017):
Values after ≈ are worked out from the molar mass of the structure shown.

Key:
[1] = tested on: Clostridium tetani; assay: Antibacterial activity against Clostridium tetani MTCC 449 after 24 to 48 hrs by broth microdilution method; assay type: functional
[2] = tested on: Aspergillus fumigatus; assay: Antifungal activity against Aspergillus fumigatus MTCC 3008 after 24 to 48 hrs by broth microdilution method; assay type: functional
[3] = tested on: Vibrio cholerae; assay: Antibacterial activity against Vibrio cholerae MTCC 3906 after 24 to 48 hrs by broth microdilution method; assay type: functional
[4] = tested on: Candida albicans; assay: Antifungal activity against Candida albicans MTCC 227 after 24 to 48 hrs by broth microdilution method; assay type: functional
[5] = tested on: Streptococcus pneumoniae; assay: Antibacterial activity against Streptococcus pneumoniae MTCC 1936 after 24 to 48 hrs by broth microdilution method; assay type: functional
[6] = tested on: Salmonella typhi; assay: Antibacterial activity against Salmonella typhi MTCC 98 after 24 to 48 hrs by broth microdilution method; assay type: functional, Salmonella enterica subsp. enterica serovar Typhi; details: Salmonella enterica
[7] = tested on: Bacillus subtilis; assay: Antibacterial activity against Bacillus subtilis MTCC 441 after 24 to 48 hrs by broth microdilution method; assay type: functional
[8] = tested on: Escherichia coli; assay: Antibacterial activity against Escherichia coli MTCC 443 after 24 to 48 hrs by broth microdilution method; assay type: functional
[9] = tested on: Schizosaccharomyces pombe; assay: Toxicity in Schizosaccharomyces pombe Var. Paul Linder 3360 assessed as dead cells at 2.5 to 12.5 ug/ml after 17 hrs by trypan blue dye-based microscopic method

Molecule	MIC [1] [µM]	MIC [2] [µM]	MIC [3] [µM]	MIC [4] [µM]	MIC [5] [µM]	MIC [6] [µM]	MIC [7] [µM]	MIC [8] [µM]	Activity [9]
c1ccc(-c2nc(-c3cc4ccccc4nc3N3CCOCC3)no2)cc1	1400 (≈ 500 µg/mL)	1400 (≈ 500 µg/mL)	1400 (≈ 500 µg/mL)	2790 (≈ 1000 µg/mL)	698 (≈ 250 µg/mL)	1400 (≈ 500 µg/mL)	1400 (≈ 500 µg/mL)	279 (≈ 100 µg/mL)	–
CC1(C)S[C@@H]2[C@H](NC(=O)[C@H](N)c3ccccc3)C(=O)N2[C@H]1C(=O)O [AMPICILLIN]	715 (≈ 250 µg/mL)	–	286 (≈ 99.9 µg/mL)	–	286 (≈ 99.9 µg/mL)	286 (≈ 99.9 µg/mL)	715 (≈ 250 µg/mL)	286 (≈ 99.9 µg/mL)	–
O=C(O)c1cn(C2CC2)c2cc(N3CCNCC3)c(F)cc2c1=O [CIPROFLOXACIN]	–	–	31 (≈ 10.3 µg/mL)	–	31 (≈ 10.3 µg/mL)	31 (≈ 10.3 µg/mL)	310 (≈ 103 µg/mL)	31 (≈ 10.3 µg/mL)	–
Cc1ccc2nc(N3CCOCC3)c(-c3noc(-c4ccc(Cl)cc4)n3)cc2c1	200 (≈ 81.4 µg/mL)	246 (≈ 100 µg/mL)	153 (≈ 62.3 µg/mL)	246 (≈ 100 µg/mL)	246 (≈ 100 µg/mL)	246 (≈ 100 µg/mL)	153 (≈ 62.3 µg/mL)	153 (≈ 62.3 µg/mL)	Toxic
Cc1ccc2nc(N3CCOCC3)c(-c3noc(-c4ccc(C(F)(F)F)cc4)n3)cc2c1	568 (≈ 250 µg/mL)	1140 (≈ 500 µg/mL)	227 (≈ 100 µg/mL)	568 (≈ 250 µg/mL)	454 (≈ 200 µg/mL)	454 (≈ 200 µg/mL)	454 (≈ 200 µg/mL)	227 (≈ 100 µg/mL)	Non-Toxic
NYSTATIN	–	107	–	107	–	–	–	–	–
Cc1ccc2nc(N3CCOCC3)c(-c3noc(-c4ccc(Br)cc4)n3)cc2c1	221 (≈ 99.7 µg/mL)	1110 (≈ 500 µg/mL)	554 (≈ 250 µg/mL)	2340 (≈ 1060 µg/mL)	221 (≈ 99.7 µg/mL)	443 (≈ 200 µg/mL)	1110 (≈ 500 µg/mL)	138 (≈ 62.3 µg/mL)	–
COc1ccc(-c2nc(-c3cc4cc(C)ccc4nc3N3CCOCC3)no2)cc1	621 (≈ 250 µg/mL)	2490 (≈ 1000 µg/mL)	497 (≈ 200 µg/mL)	1240 (≈ 500 µg/mL)	310 (≈ 125 µg/mL)	248 (≈ 99.8 µg/mL)	621 (≈ 250 µg/mL)	497 (≈ 200 µg/mL)	–
Clc1ccc(-c2nc(-c3cc4ccccc4nc3N3CCOCC3)no2)cc1	159 (≈ 62.5 µg/mL)	255 (≈ 100 µg/mL)	255 (≈ 100 µg/mL)	637 (≈ 250 µg/mL)	159 (≈ 62.5 µg/mL)	255 (≈ 100 µg/mL)	255 (≈ 100 µg/mL)	510 (≈ 200 µg/mL)	Toxic
O=[N+]([O-])c1ccc(-c2nc(-c3cc4ccccc4nc3N3CCOCC3)no2)cc1	155 (≈ 62.5 µg/mL)	248 (≈ 100 µg/mL)	620 (≈ 250 µg/mL)	1130 (≈ 456 µg/mL)	248 (≈ 100 µg/mL)	155 (≈ 62.5 µg/mL)	155 (≈ 62.5 µg/mL)	620 (≈ 250 µg/mL)	Toxic
Cc1ccc2nc(N3CCOCC3)c(-c3noc(-c4ccc([N+](=O)[O-])cc4)n3)cc2c1	149 (≈ 62.2 µg/mL)	1200 (≈ 500 µg/mL)	239 (≈ 99.8 µg/mL)	1140 (≈ 476 µg/mL)	149 (≈ 62.2 µg/mL)	599 (≈ 250 µg/mL)	239 (≈ 99.8 µg/mL)	239 (≈ 99.8 µg/mL)	Toxic
CCn1cc(C(=O)O)c(=O)c2cc(F)c(N3CCNCC3)cc21 [NORFLOXACIN]	154 (≈ 49.2 µg/mL)	–	154 (≈ 49.2 µg/mL)	–	154 (≈ 49.2 µg/mL)	154 (≈ 49.2 µg/mL)	154 (≈ 49.2 µg/mL)	154 (≈ 49.2 µg/mL)	–
COC1=CC(=O)C[C@@H](C)[C@]12Oc1c(Cl)c(OC)cc(OC)c1C2=O [GRISEOFULVIN]	–	283 (≈ 99.8 µg/mL)	–	1150 (≈ 405 µg/mL)	–	–	–	–	–
COc1ccc(-c2nc(-c3cc4ccccc4nc3N3CCOCC3)no2)cc1	1290 (≈ 500 µg/mL)	2580 (≈ 1000 µg/mL)	644 (≈ 250 µg/mL)	2580 (≈ 1000 µg/mL)	1290 (≈ 500 µg/mL)	515 (≈ 200 µg/mL)	257 (≈ 99.8 µg/mL)	257 (≈ 99.8 µg/mL)	Non-Toxic
FC(F)(F)c1ccc(-c2nc(-c3cc4ccccc4nc3N3CCOCC3)no2)cc1	146 (≈ 62.3 µg/mL)	146 (≈ 62.3 µg/mL)	586 (≈ 250 µg/mL)	2350 (≈ 1000 µg/mL)	146 (≈ 62.3 µg/mL)	146 (≈ 62.3 µg/mL)	146 (≈ 62.3 µg/mL)	586 (≈ 250 µg/mL)	–
Brc1ccc(-c2nc(-c3cc4ccccc4nc3N3CCOCC3)no2)cc1	572 (≈ 250 µg/mL)	2290 (≈ 1000 µg/mL)	228 (≈ 99.7 µg/mL)	1120 (≈ 488 µg/mL)	286 (≈ 125 µg/mL)	228 (≈ 99.7 µg/mL)	457 (≈ 200 µg/mL)	572 (≈ 250 µg/mL)	Non-Toxic
FC(F)(F)c1cccc(-c2nc(-c3cc4ccccc4nc3N3CCOCC3)no2)c1	469 (≈ 200 µg/mL)	234 (≈ 99.8 µg/mL)	234 (≈ 99.8 µg/mL)	1130 (≈ 482 µg/mL)	234 (≈ 99.8 µg/mL)	146 (≈ 62.3 µg/mL)	234 (≈ 99.8 µg/mL)	234 (≈ 99.8 µg/mL)	–
Cc1ccc2nc(N3CCOCC3)c(-c3noc(-c4cccc(C(F)(F)F)c4)n3)cc2c1	1140 (≈ 500 µg/mL)	1140 (≈ 500 µg/mL)	568 (≈ 250 µg/mL)	2270 (≈ 1000 µg/mL)	227 (≈ 100 µg/mL)	568 (≈ 250 µg/mL)	568 (≈ 250 µg/mL)	454 (≈ 200 µg/mL)	Non-Toxic
Cc1ccc2nc(N3CCOCC3)c(-c3noc(-c4ccccc4)n3)cc2c1	268 (≈ 99.8 µg/mL)	1340 (≈ 501 µg/mL)	268 (≈ 99.8 µg/mL)	2690 (≈ 1000 µg/mL)	672 (≈ 250 µg/mL)	1340 (≈ 501 µg/mL)	1340 (≈ 501 µg/mL)	672 (≈ 250 µg/mL)	–
O=C(N[C@H](CO)[C@H](O)c1ccc([N+](=O)[O-])cc1)C(Cl)Cl [CHLORAMPHENICOL]	301 (≈ 97.3 µg/mL)	–	75 (≈ 24.2 µg/mL)	–	150 (≈ 48.5 µg/mL)	75 (≈ 24.2 µg/mL)	150 (≈ 48.5 µg/mL)	75 (≈ 24.2 µg/mL)	–
